Experimental data published in patent US20220169632A1, “METHODS AND MATERIALS FOR INCREASING OR MAINTAINING NICOTINAMIDE MONONUCLEOTIDE ADENYLYL TRANSFERASE-2 (NMNAT2) POLYPEPTIDE LEVELS” (University of Pittsburgh - Of the Commonwealth System of …, priority 2019, published 2022).

Each molecule was assayed on NMNAT2 (assay: NMNAT2-Hibit nano-luciferase activity in stably transfected U87MG cells, various concentrations, 24 hours). Details: U87MG cells stably transfected with NMNAT2-Hibit luc plasmid.
Assay type: cell-based
Method: Selected compounds were tested in vitro. U87MG cells were stably transfected with NMNAT2-Hibit luc plasmid. Cells were treated with a test compound at various concentrations for 24 hours. Cells were then collected and assayed for nano-luciferase activity.

Structure (SMILES) | E: compound efficacy for NMNAT2 activation (concentration giving >25% increase in NMNAT2 luciferase activity)
Cc1ccccc1CNC(=O)c1ccc2c(c1)c(C)c(C)n2Cc1cccc(F)c1 [BC20113] | ++ (“++” >25% increase in NMNAT2 luciferase activity at >1 μM ≤25 μM.)
Cc1cccc(CNC(=O)c2ccc3c(c2)c(C)c(C)n3Cc2cccc(F)c2)c1 [BC20114] | ++ (“++” >25% increase in NMNAT2 luciferase activity at >1 μM ≤25 μM.)
COc1ccccc1CNC(=O)c1ccc2c(c1)c(C)c(C)n2Cc1cccc(F)c1 [BC20115] | ++ (“++” >25% increase in NMNAT2 luciferase activity at >1 μM ≤25 μM.)
COc1cccc(CNC(=O)c2ccc3c(c2)c(C)c(C)n3Cc2cccc(F)c2)c1 [BC20116] | ++ (“++” >25% increase in NMNAT2 luciferase activity at >1 μM ≤25 μM.)
Cc1c(C)n(Cc2cccc(F)c2)c2ccc(C(=O)N3CCN(C(=O)c4ccco4)CC3)cc12 [BC20117] | ++ (“++” >25% increase in NMNAT2 luciferase activity at >1 μM ≤25 μM.)
Cc1c(C)n(Cc2cccc(F)c2)c2ccc(C(=O)NC(C)Cc3ccco3)cc12 (stereo not drawn) [BC20118] | ++ (“++” >25% increase in NMNAT2 luciferase activity at >1 μM ≤25 μM.)
Cc1c(C)n(Cc2cccc(F)c2)c2ccc(C(=O)NCc3ccncc3)cc12 [BC20119] | +++ (“+++” >25% increase in NMNAT2 luciferase activity at ≤1 μM.)
CCCCN(CC)Cc1ccc(CNC(=O)c2ccc3c(c2)c(C)c(C)n3Cc2cccc(F)c2)o1 [BC20120] | +++ (“+++” >25% increase in NMNAT2 luciferase activity at ≤1 μM.)
O=C(CCCc1cn(Cc2ccccc2F)c2ccccc12)NCc1ccco1 [BC20121] | ++ (“++” >25% increase in NMNAT2 luciferase activity at >1 μM ≤25 μM.)
Cc1ccc(CNC(=O)CCCc2cn(Cc3ccccc3F)c3ccccc23)o1 [BC20122] | ++ (“++” >25% increase in NMNAT2 luciferase activity at >1 μM ≤25 μM.)
O=C(CCCc1cn(Cc2ccccc2F)c2ccccc12)NCC1CCCO1 (stereo not drawn) [BC20123] | ++ (“++” >25% increase in NMNAT2 luciferase activity at >1 μM ≤25 μM.)
O=C(CCCc1cn(Cc2ccccc2F)c2ccccc12)NCc1cccc(F)c1 [BC20124] | ++ (“++” >25% increase in NMNAT2 luciferase activity at >1 μM ≤25 μM.)
Cc1ccccc1CNC(=O)CCCc1cn(Cc2ccccc2F)c2ccccc12 [BC20125] | ++ (“++” >25% increase in NMNAT2 luciferase activity at >1 μM ≤25 μM.)
Cc1cccc(CNC(=O)CCCc2cn(Cc3ccccc3F)c3ccccc23)c1 [BC20126] | ++ (“++” >25% increase in NMNAT2 luciferase activity at >1 μM ≤25 μM.)
COc1ccccc1CNC(=O)CCCc1cn(Cc2ccccc2F)c2ccccc12 [BC20127] | ++ (“++” >25% increase in NMNAT2 luciferase activity at >1 μM ≤25 μM.)
COc1cccc(CNC(=O)CCCc2cn(Cc3ccccc3F)c3ccccc23)c1 [BC20128] | ++ (“++” >25% increase in NMNAT2 luciferase activity at >1 μM ≤25 μM.)
O=C(CCCc1cn(Cc2ccccc2F)c2ccccc12)N1CCN(C(=O)c2ccco2)CC1 [BC20129] | ++ (“++” >25% increase in NMNAT2 luciferase activity at >1 μM ≤25 μM.)
CC(Cc1ccco1)NC(=O)CCCc1cn(Cc2ccccc2F)c2ccccc12 (stereo not drawn) [BC20130] | ++ (“++” >25% increase in NMNAT2 luciferase activity at >1 μM ≤25 μM.)
O=C(CCCc1cn(Cc2ccccc2F)c2ccccc12)NCCc1ccccc1 [BC20131] | ++ (“++” >25% increase in NMNAT2 luciferase activity at >1 μM ≤25 μM.)
O=C(CCCc1cn(Cc2ccccc2F)c2ccccc12)NCc1cccnc1 [BC20132] | ++ (“++” >25% increase in NMNAT2 luciferase activity at >1 μM ≤25 μM.)
O=C(CCCc1cn(Cc2ccccc2F)c2ccccc12)NCc1ccncc1 [BC20133] | ++ (“++” >25% increase in NMNAT2 luciferase activity at >1 μM ≤25 μM.)
Cc1cccc(NC(=O)CCCc2cn(Cc3ccccc3F)c3ccccc23)c1C [BC20134] | ++ (“++” >25% increase in NMNAT2 luciferase activity at >1 μM ≤25 μM.)
O=C(CCCc1cn(Cc2cccc(F)c2)c2ccccc12)NCc1ccco1 [BC20135] | ++ (“++” >25% increase in NMNAT2 luciferase activity at >1 μM ≤25 μM.)
Cc1ccc(CNC(=O)CCCc2cn(Cc3cccc(F)c3)c3ccccc23)o1 [BC20136] | ++ (“++” >25% increase in NMNAT2 luciferase activity at >1 μM ≤25 μM.)

Structure (SMILES) | E: compound efficacy for NMNAT2 activation (concentration giving >25% increase in NMNAT2 luciferase activity)
O=C(CCCc1cn(Cc2cccc(F)c2)c2ccccc12)NCC1CCCO1 (stereo not drawn) [BC20137] | ++ (“++” >25% increase in NMNAT2 luciferase activity at >1 μM ≤25 μM.)
O=C(CCCc1cn(Cc2cccc(F)c2)c2ccccc12)NCc1ccccc1F [BC20138] | ++ (“++” >25% increase in NMNAT2 luciferase activity at >1 μM ≤25 μM.)
O=C(CCCc1cn(Cc2cccc(F)c2)c2ccccc12)NCc1cccc(F)c1 [BC20139] | ++ (“++” >25% increase in NMNAT2 luciferase activity at >1 μM ≤25 μM.)
Cc1ccccc1CNC(=O)CCCc1cn(Cc2cccc(F)c2)c2ccccc12 [BC20140] | + (“+” >25% increase in NMNAT2 luciferase activity at >25 μM.)
Cc1cccc(CNC(=O)CCCc2cn(Cc3cccc(F)c3)c3ccccc23)c1 [BC20141] | + (“+” >25% increase in NMNAT2 luciferase activity at >25 μM.)
COc1ccccc1CNC(=O)CCCc1cn(Cc2cccc(F)c2)c2ccccc12 [BC20142] | ++ (“++” >25% increase in NMNAT2 luciferase activity at >1 μM ≤25 μM.)
COc1cccc(CNC(=O)CCCc2cn(Cc3cccc(F)c3)c3ccccc23)c1 [BC20143] | ++ (“++” >25% increase in NMNAT2 luciferase activity at >1 μM ≤25 μM.)
O=C(CCCc1cn(Cc2cccc(F)c2)c2ccccc12)N1CCN(C(=O)c2ccco2)CC1 [BC20144] | ++ (“++” >25% increase in NMNAT2 luciferase activity at >1 μM ≤25 μM.)
CC(Cc1ccco1)NC(=O)CCCc1cn(Cc2cccc(F)c2)c2ccccc12 (stereo not drawn) [BC20145] | ++ (“++” >25% increase in NMNAT2 luciferase activity at >1 μM ≤25 μM.)
O=C(CCCc1cn(Cc2cccc(F)c2)c2ccccc12)NCCc1ccccc1 [BC20146] | ++ (“++” >25% increase in NMNAT2 luciferase activity at >1 μM ≤25 μM.)
O=C(CCCc1cn(Cc2cccc(F)c2)c2ccccc12)NCc1cccnc1 [BC20147] | ++ (“++” >25% increase in NMNAT2 luciferase activity at >1 μM ≤25 μM.)
O=C(CCCc1cn(Cc2cccc(F)c2)c2ccccc12)NCc1ccncc1 [BC20148] | ++ (“++” >25% increase in NMNAT2 luciferase activity at >1 μM ≤25 μM.)
Cc1cccc(NC(=O)CCCc2cn(Cc3cccc(F)c3)c3ccccc23)c1C [BC20149] | ++ (“++” >25% increase in NMNAT2 luciferase activity at >1 μM ≤25 μM.)
Cc1ccc(CNC(=O)CCCc2cn(Cc3ccccc3C)c3ccccc23)o1 [BC20150] | ++ (“++” >25% increase in NMNAT2 luciferase activity at >1 μM ≤25 μM.)
Cc1ccccc1Cn1cc(CCCC(=O)NCc2ccccc2F)c2ccccc21 [BC20151] | ++ (“++” >25% increase in NMNAT2 luciferase activity at >1 μM ≤25 μM.)
Cc1ccccc1Cn1cc(CCCC(=O)NCc2cccc(F)c2)c2ccccc21 [BC20152] | ++ (“++” >25% increase in NMNAT2 luciferase activity at >1 μM ≤25 μM.)
Cc1ccccc1CNC(=O)CCCc1cn(Cc2ccccc2C)c2ccccc12 [BC20153] | ++ (“++” >25% increase in NMNAT2 luciferase activity at >1 μM ≤25 μM.)
Cc1cccc(CNC(=O)CCCc2cn(Cc3ccccc3C)c3ccccc23)c1 [BC20154] | + (“+” >25% increase in NMNAT2 luciferase activity at >25 μM.)
COc1ccccc1CNC(=O)CCCc1cn(Cc2ccccc2C)c2ccccc12 [BC20155] | ++ (“++” >25% increase in NMNAT2 luciferase activity at >1 μM ≤25 μM.)
COc1cccc(CNC(=O)CCCc2cn(Cc3ccccc3C)c3ccccc23)c1 [BC20156] | ++ (“++” >25% increase in NMNAT2 luciferase activity at >1 μM ≤25 μM.)
Cc1ccccc1Cn1cc(CCCC(=O)N(CCCN2CCOCC2)Cc2ccco2)c2ccccc21 [BC20157] | +++ (“+++” >25% increase in NMNAT2 luciferase activity at ≤1 μM.)
Cc1ccccc1Cn1cc(CCCC(=O)N2CCN(C(=O)c3ccco3)CC2)c2ccccc21 [BC20158] | ++ (“++” >25% increase in NMNAT2 luciferase activity at >1 μM ≤25 μM.)
Cc1ccccc1Cn1cc(CCCC(=O)NC(C)Cc2ccco2)c2ccccc21 (stereo not drawn) [BC20159] | ++ (“++” >25% increase in NMNAT2 luciferase activity at >1 μM ≤25 μM.)
Cc1ccccc1Cn1cc(CCCC(=O)NCc2ccncc2)c2ccccc21 [BC20160] | ++ (“++” >25% increase in NMNAT2 luciferase activity at >1 μM ≤25 μM.)
